Where a name gives a salt, the structure may show the parent alone.
What was measured:
[1] = tested on: mice subjected to a closed head injury (CHI); assay: Neurological Severity Score (NSS) after closed head injury; type: in vivo; conditions: oral gavage, 9 daily doses over 2 weeks starting 24 h after CHI; Pg oil 100 mg/kg, citronellol 25 mg/kg, citronellyl formate 80 mg/kg; from day 7 up to 30 days after trauma
Protocol: (§1) Experimental CHI was induced by using a modified weight drop device (Chen et al; Flierl et al). Briefly, under 3% isoflurane anesthesia and supplementary oxygen (confirmed by the loss of response to pinch of paw), a midline longitudinal incision is performed, and the skull is exposed. A Teflon tipped cone (2 mm diameter) is placed upside down 2 mm lateral to the midline and 2 mm posterior to the bregma in the mid-coronal plane. The head is held in place and a 95 g weight is allowed to free-fall on the cone from a pre-established height, resulting in focal injury to the left hemisphere. The height of the free-fall weight is determined by the weight of the mouse and the desired CHI severity. In the present experiments, a free-fall of 6.5-7 cm was selected to induce a moderate neurological severity injury (NSS of 6-7 at 1 hr post injury). […] At 1 h after CHI, the NSS is evaluated. […] Animals displaying apnea were monitored carefully and returned to their cage when adequate oxygenation was restored. • a. […]
The functional status of the mice was evaluated according to the neurobehavioral score, known as the Neurological Severity Score (NSS), which consists of several tests that assess reflexes, alertness, coordination, and motor abilities. […]
The neurological severity score (NSS) was determined for each of the experimental groups of mice (details as described above) starting 1 hour after the trauma.

[2] = tested on: mice subjected to a closed head injury (CHI); assay: Barnes maze test (learning) after CHI; type: in vivo; conditions: acquisition days 1-4, two weeks after CHI; oral gavage, 9 daily doses; Pg oil 100 mg/kg, citronellol 25 mg/kg, citronellyl formate 80 mg/kg
Protocol: as §1, with “injury). Sham mice were anesthetized and subjected to the same skin incision as described above, with no further trauma.” for “injury).”
The BM test is based on the instinct of the mouse to hide when exposed to environmental disturbances and is used to test spatial learning and memory. […] For the probe trial, the latency to reaching the escape box first is recorded. […]

[3] = tested on: mice subjected to a closed head injury (CHI); assay: Novel Object Recognition (NOR) test after CHI; type: in vivo; conditions: 22 days after trauma; 4 hours after object replaced; oral gavage, 9 daily doses; Pg oil 100 mg/kg, citronellol 25 mg/kg, citronellyl formate 80 mg/kg
Protocol: as §1, with “severity.” for “severity. In the present experiments, a free-fall of 6.5-7 cm was selected to induce a moderate neurological severity injury (NSS of 6-7 at 1 hr post injury).”
The novel object recognition (NOR test) was performed to assess short term memory 22d after trauma. […] The cumulative time spent by each mouse exploring the objects was recorded manually for a total of 5 min. […] Exploration of the object was determined as such when the mouse's nose was pointed in the direction of the object and the mouse was actively investigating it, directly touching it or being close to it. […] The time spent exploring each of the objects (novel or familiar) was recorded and calculated as the percentage of time from a total of 5 min. […]

[4] = tested on: mice subjected to a closed head injury (CHI); assay: Y maze spatial memory test after CHI; type: in vivo; conditions: 24 days after trauma; oral gavage, 9 daily doses; Pg oil 100 mg/kg, citronellol 25 mg/kg, citronellyl formate 80 mg/kg
Protocol: as §1, with “severity.” for “severity. In the present experiments, a free-fall of 6.5-7 cm was selected to induce a moderate neurological severity injury (NSS of 6-7 at 1 hr post injury).”
At 24 days post CHI, the Y maze spatial memory test was preformed to evaluate short term spatial memory. […] Short-term memory is reflected by the Preference index (PI), calculated as the amount of time spent in the new arm relative to the total amount of time spent in the “other” plus “new” arms. […]
The data was further analyzed by dividing the mice's performance into two groups: mice with (+) positive y-axis values (which represent a good spatial memory) and mice with negative (−) y-axis values (which represent spatial memory loss).

[5] = molecular target: acetyl choline esterase (Homo sapiens, UniProt P22303); conditions: in vitro; cited from earlier work
Sequence of acetyl choline esterase (P22303 32-614): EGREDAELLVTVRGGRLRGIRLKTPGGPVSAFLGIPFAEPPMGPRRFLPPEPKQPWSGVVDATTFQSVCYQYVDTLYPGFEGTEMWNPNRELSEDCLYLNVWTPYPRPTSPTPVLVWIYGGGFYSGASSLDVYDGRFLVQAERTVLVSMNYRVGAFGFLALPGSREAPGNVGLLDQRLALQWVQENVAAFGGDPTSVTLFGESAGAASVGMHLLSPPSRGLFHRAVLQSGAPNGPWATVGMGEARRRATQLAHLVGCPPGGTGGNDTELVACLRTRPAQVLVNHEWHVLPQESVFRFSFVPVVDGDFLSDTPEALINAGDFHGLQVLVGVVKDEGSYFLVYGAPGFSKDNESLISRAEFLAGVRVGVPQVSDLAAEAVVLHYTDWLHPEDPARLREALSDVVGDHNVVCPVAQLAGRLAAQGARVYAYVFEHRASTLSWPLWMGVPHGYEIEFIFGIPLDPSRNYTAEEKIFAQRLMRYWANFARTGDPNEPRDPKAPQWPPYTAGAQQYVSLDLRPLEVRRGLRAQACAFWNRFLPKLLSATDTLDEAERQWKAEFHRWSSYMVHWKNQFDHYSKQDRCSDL

CC(C)=CCCC(C)CCO (stereo not drawn) [citronellol]
reduction in the neurological severity score (NSS) compared with vehicle treated CHI mice [1]: significant reduction | Barnes maze learning performance (latency to escape box) [2]: significant improvement, but only on day 2 | preference/recognition of a novel object versus a familiar one (NOR) [3]: not able to prefer/recognize a novel object | percent of mice that preferred the novel arm over the familiar arm (Y maze) [4]: About 54%

CC(C)=CCCC(C)CCOC=O (stereo not drawn) [citronellyl formate]
reduction in the neurological severity score (NSS) compared with vehicle treated CHI mice [1]: significant reduction | Barnes maze learning performance (latency to escape box) [2]: significant improvement, but only on day 2 | preference/recognition of a novel object versus a familiar one (NOR) [3]: not able to prefer/recognize a novel object | percent of mice that preferred the novel arm over the familiar arm (Y maze) [4]: About 54%

CC(C)=CCC[C@H](C)CCO [(S) (−) citronellol]
inhibition of acetyl choline esterase activity [5]: inhibits in vitro the activity of the enzyme acetyl choline esterase

Reference: patent US20260224652A1, “ENRICHED PELARGONIUM GRAVEOLENS EXTRACTS FOR THE TREATMENT OF TRAUMATIC BRAIN INJURIES” (THE STATE OF ISRAEL, MINISTRY OF AGRICULTURE & RURAL …, priority 2023, published 2026)
